Among the data in US11712438B2, “Phenyl derivatives as PGE2 receptor modulators” (IDORSIA PHARMACEUTICALS LTD, priority 2017, dated 2023) are IC50 values, retold here.

The structures appear in SMILES notation.

Some targets named below: EP2 (Homo sapiens, UniProt P43116); PTGER2 (EP2) (Homo sapiens, UniProt P43116); PTRGER4 (EP4) (Homo sapiens, UniProt P35408); EP4 (Homo sapiens, UniProt P35408).
Common to all, as to test: cell-based

Sequence of PTRGER4 (EP4) (P35408 whole entry): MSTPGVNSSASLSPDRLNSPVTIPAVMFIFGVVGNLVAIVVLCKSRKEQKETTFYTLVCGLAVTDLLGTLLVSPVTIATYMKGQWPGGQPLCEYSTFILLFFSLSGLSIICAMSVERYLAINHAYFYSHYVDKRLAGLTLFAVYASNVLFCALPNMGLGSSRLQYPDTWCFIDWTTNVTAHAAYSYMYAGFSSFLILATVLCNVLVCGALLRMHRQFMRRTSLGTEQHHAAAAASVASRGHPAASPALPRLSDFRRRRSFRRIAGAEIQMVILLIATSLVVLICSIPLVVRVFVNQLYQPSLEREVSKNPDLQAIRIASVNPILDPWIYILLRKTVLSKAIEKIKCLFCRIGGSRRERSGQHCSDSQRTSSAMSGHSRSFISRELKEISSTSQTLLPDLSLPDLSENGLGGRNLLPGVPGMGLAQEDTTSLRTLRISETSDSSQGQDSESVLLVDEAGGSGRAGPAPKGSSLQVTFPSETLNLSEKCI
Sequence of EP4 (P35408 whole entry): as above
Sequence of PTGER2 (EP2) (P43116 whole entry): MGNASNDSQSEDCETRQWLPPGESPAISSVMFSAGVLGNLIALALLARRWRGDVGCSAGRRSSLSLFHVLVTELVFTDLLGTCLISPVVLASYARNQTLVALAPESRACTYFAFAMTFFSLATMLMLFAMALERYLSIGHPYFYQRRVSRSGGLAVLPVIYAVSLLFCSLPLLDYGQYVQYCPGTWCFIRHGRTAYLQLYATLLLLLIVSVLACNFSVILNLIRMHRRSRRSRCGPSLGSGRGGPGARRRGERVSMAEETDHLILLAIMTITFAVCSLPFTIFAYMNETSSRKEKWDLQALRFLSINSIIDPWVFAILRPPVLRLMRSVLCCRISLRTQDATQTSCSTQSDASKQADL
Sequence of EP2 (P43116 whole entry): as above

In general, IC50 refers to the midpoint of a concentration-inhibition curve. `CC(C)Oc1cc(-c2cc(NCCc3c(F)cc(Br)cc3F)ncn2)sc1-c1noc(=O)[nH]1` [Example 162, 3-(5-{6-[2-(4-Bromo-2,6-difluoro-phenyl)-ethylamino]-pyrimidin-4-yl}-3-isopropoxy-thiophen-2-yl)-[1,2,4]oxadiazol-5(4H)-one]: the 50% inhibitory concentration (IC50) against EP2 is 46 nM; on PTGER2 (EP2), 20 nM; against PTRGER4 (EP4) it was 2 nM; against EP4 it was 5 nM.

Take `CCOc1cc(-c2cc(NCCc3cc(F)c(C(F)F)cc3OC)ncn2)sc1C(=O)O` [Example 185, 5-{6-[2-(4-Difluoromethyl-5-fluoro-2-methoxy-phenyl)-ethylamino]-pyrimidin-4-yl}-3-ethoxy-thiophene-2-carboxylic acid]: the half-maximal inhibitory concentration (IC50) at EP2 worked out at 41 nM; against PTGER2 (EP2), 51 nM; against PTRGER4 (EP4), 8 nM; on EP4, 6 nM.

On to `COc1cc(C(F)F)c(F)cc1CCNc1cc(-c2ccc(C(=O)O)c(OC3CCC3)c2)ncn1` [Example 184, 2-Cyclobutoxy-4-{6-[2-(4-difluoromethyl-5-fluoro-2-methoxy-phenyl)-ethylamino]pyrimidin-4-yl}-benzoic acid], for which the IC50 on EP2 is 630 nM; against PTGER2 (EP2) it was 127 nM; against PTRGER4 (EP4), 140 nM; at EP4 it was 250 nM.

On to `CCOc1cc(-c2cc(NCCc3ccc(Cl)c(Cl)c3C)ncn2)sc1C(=O)O` [Example 181, 5-{6-[2-(3,4-Dichloro-2-methyl-phenyl)-ethylamino]-pyrimidin-4-yl}-3-ethoxy-thiophene-2-carboxylic acid], for which the half-inhibitory concentration (IC50) was determined as 92 nM on EP2, 165 nM against PTGER2 (EP2), 96 nM against PTRGER4 (EP4) and 34 nM against EP4.

For `COc1cc(SC)ccc1CCNc1cc(-c2ccc(C(=O)O)c(SC)c2)ncn1` [Example 2, 4-{6-[2-(2-Methoxy-4-methylsulfanyl-phenyl)-ethylamino]-pyrimidin-4-yl}-2-methylsulfanyl-benzoic acid], the IC50 against EP2 was 79 nM; on PTGER2 (EP2), 438 nM; on PTRGER4 (EP4), 550 nM; against EP4, 112 nM.

Take `CCOc1cc(-c2cc(NCCc3ccc(OC)cc3OC)ncn2)sc1C(=O)O` [Example 73, 5-{6-[2-(2,4-Dimethoxy-phenyl)-ethylamino]-pyrimidin-4-yl}-3-ethoxy-thiophene-2-carboxylic acid]: the concentration for half-maximal inhibition (IC50) against EP2 was 30 nM; at PTGER2 (EP2), 54 nM; at PTRGER4 (EP4), 136 nM; against EP4 it was 35 nM.

Consider `O=c1[nH]c(-c2ccc(-c3cc(NCCc4c(F)cc(Br)cc4F)ncn3)s2)no1` [Example 135, 3-(5-{6-[2-(4-Bromo-2,6-difluoro-phenyl)-ethylamino]-pyrimidin-4-yl}-thiophen-2-yl)-[1,2,4]oxadiazol-5(4H)-one], for which the 50% inhibitory concentration (IC50) is 15 nM on EP2, 26 nM at PTGER2 (EP2), 8 nM at PTRGER4 (EP4) and 34 nM at EP4.

As for `CCOc1cc(-c2cc(NCCc3ccc(Cl)cc3Cl)ncn2)sc1-c1noc(=O)[nH]1` [Example 123, 3-(5-{6-[2-(2,4-Dichloro-phenyl)-ethylamino]-pyrimidin-4-yl}-3-ethoxy-thiophen-2-yl)-[1,2,4]oxadiazol-5(4H)-one], the 50% inhibitory concentration (IC50) was found to be 32 nM at EP2, 29 nM against PTGER2 (EP2), 27 nM against PTRGER4 (EP4) and 19 nM against EP4.

As to `CCOc1cc(-c2cc(NCCc3ccc(Cl)cc3[N+](=O)[O-])ncn2)sc1C(=O)O` [Example 65, 5-{6-[2-(4-Chloro-2-nitro-phenyl)-ethylamino]-pyrimidin-4-yl}-3-ethoxy-thiophene-2-carboxylic acid], the half-maximal inhibitory concentration (IC50) was found to be 102 nM on EP2, 111 nM at PTGER2 (EP2), 136 nM at PTRGER4 (EP4) and 53 nM against EP4.

Take `CCCOc1cc(Br)ccc1CCNc1cc(-c2cc(OCC)c(-c3noc(=O)[nH]3)s2)ncn1` [Example 89, 3-(5-{6-[2-(4-Bromo-2-propoxy-phenyl)-ethylamino]-pyrimidin-4-yl}-3-ethoxy-thiophen-2yl)-[1,2,4]oxadiazol-5(4H)-one]: the concentration for half-maximal inhibition (IC50) at EP2 stood at 10 nM; at PTGER2 (EP2), 17 nM; at PTRGER4 (EP4) it was 3 nM; against EP4, 58 nM.

As to `CCCc1cc(-c2cc(NCCc3c(F)cc(Br)cc3F)ncn2)ccc1C(=O)O` [Example 35, 4-{6-[2-(4-Bromo-2,6-difluoro-phenyl)-ethylamino]-pyrimidin-4-yl}-2-propyl-benzoic acid], the IC50 was determined as 86 nM at EP2, 109 nM at PTGER2 (EP2), 242 nM on PTRGER4 (EP4) and 433 nM on EP4.

In the case of `CCOc1cc(-c2cc(NCCc3cc(OC)ccc3OC)ncn2)sc1C(=O)O` [Example 72, 5-{6-[2-(2,5-Dimethoxy-phenyl)-ethylamino]-pyrimidin-4-yl}-3-ethoxy-thiophene-2-carboxylic acid], the IC50 against EP2 amounted to 40 nM; against PTGER2 (EP2), 77 nM; against PTRGER4 (EP4), 104 nM; on EP4, 42 nM.

For `CCOc1cc(-c2cc(NCCc3c(F)cc(Br)cc3F)ncn2)ccc1OCCC(=O)O` [Example 45, 3-(4-{6-[2-(4-Bromo-2,6-difluoro-phenyl)-ethylamino]-pyrimidin-4-yl}-2-ethoxy-phenoxy)-propionic acid], the IC50 against EP2 was 184 nM; at PTGER2 (EP2), 81 nM; at PTRGER4 (EP4) it was 50 nM; on EP4, 165 nM.

As for `CCOc1cc(-c2cc(NCCc3ccc(Br)cc3OC)ncn2)sc1-c1noc(=O)[nH]1` [Example 126, 3-(5-{6-[2-(4-Bromo-2-methoxy-phenyl)-ethylamino]-pyrimidin-4-yl}-3-ethoxy-thiophen-2yl)-[1,2,4]oxadiazol-5(4H)-one], the concentration for half-maximal inhibition (IC50) stood at 74 nM at EP2, 22 nM at PTGER2 (EP2), 7 nM against PTRGER4 (EP4) and 20 nM against EP4.

Regarding `CCOc1cc(F)ccc1CCNc1cc(-c2cc(OCC)c(-c3noc(=O)[nH]3)s2)ncn1` [Example 95, 3-(3-Ethoxy-5-{6-[2-(2-ethoxy-4-fluoro-phenyl)-ethylamino]-pyrimidin-4-yl}-thiophen-2-yl)-[1,2,4]oxadiazol-5(4H)-one], the IC50 against EP2 worked out at 15 nM; on PTGER2 (EP2) it was 30 nM; on PTRGER4 (EP4) it was 59 nM; against EP4, 166 nM.

On to `CCOc1nc(-c2cc(NCCc3c(F)cc(Br)cc3F)ncn2)sc1C(=O)O` [Example 148, 2-{6-[2-(4-Bromo-2,6-difluoro-phenyl)-ethylamino]-pyrimidin-4-yl}-4-ethoxy-thiazole-5-carboxylic acid], for which the IC50 is 19 nM against EP2, 20 nM against PTGER2 (EP2), 9 nM against PTRGER4 (EP4) and 8 nM against EP4.

Take `CCOc1cc(-c2cc(NCCc3ccc(Cl)cc3C#N)ncn2)sc1-c1noc(=O)[nH]1` [Example 96]: the IC50 on EP2 is 58 nM; against PTGER2 (EP2), 24 nM; at PTRGER4 (EP4), 43 nM; on EP4 it was 106 nM.

With `CCOc1ccccc1CCNc1cc(-c2cc(OCC)c(-c3noc(=O)[nH]3)s2)ncn1` [Example 102, 3-(3-Ethoxy-5-{6-[2-(2-ethoxy-phenyl)-ethylamino]-pyrimidin-4-yl}-thiophen-2-yl)-[1,2,4]oxadiazol-5(4H)-one], the IC50 is 17 nM against EP2, 34 nM at PTGER2 (EP2), 91 nM on PTRGER4 (EP4) and 122 nM on EP4.
